The values below come from patent publication US5342970A, “Hydrosoluble coumarin derivatives, their preparation and their use as an enzyme substrate or for the preparation of such substrates” (priority 1991, dated 1994).

“And” between values parts separate entries of the source, which are not always exact repeats. Equal values may be shown once. Where a name gives a salt, the structure may show the parent alone. Read-outs that look alike come from different tables or passages of the source.

One may read the Km as the concentration of substrate that gives half-maximal velocity. Broadly, the solubility is the dissolved amount per volume that the medium holds. Usually kcat stands for the maximal rate divided by the concentration of active sites. One may read the Vmax as the top rate of the reaction or transport when substrate is in excess. Usually kcat/Km stands for the turnover number divided by the Michaelis constant.

The subject of data set [1] is Leucine aminopeptidase. The note with it: comparison substrate Leu-AMC; cited from earlier work.
Data set [2] concerns Leucine aminopeptidase. The note with it: known substrates, for comparison; medium with organic solvent; cited from earlier work.
Data set [3] is described as follows: Excitation and emission spectra of substrates and hydrolysis products (Table 1). It counts as physicochemical.
Data set [4] in a line: Solubility in water and in water-ethanol mixtures. It counts as physicochemical. Conditions: water; read-out: Solubility in water.
Data set [5] in a line: Ratio of fluorescence intensities of hydrolysis product and substrate. It counts as physicochemical. Conditions: equimolar concentration, at the measurement wavelength.
In data set [6] the test system is Leucine aminopeptidase. The experiment in a line: Determination of leucine aminopeptidase, analytical characteristics of the reaction. It counts as biochemical. As to the method:
The reaction conditions were determined following the preceding stage. The Leu-ATC substrate concentration was chosen to give a maximum speed (1 mM). The reaction time was made 12 minutes by measuring the difference of the fluorescence intensities at 12 and 2 minutes. In order to evaluate the quantification limit, measure the repeatability and test the linearity, […] were prepared containing concentrations of 0-0.05-0.10-0.25-0.50-1 μg/ml using the same reagents as previously and giving the following range:
In order to carry out the evaluation, a series of tubes was prepared containing 750 μl of water+250 μl of 1.17N perchloric solution and at time 2 min, transfer thereto took place of 250 μl of each sample of the enzyme range. The same took place at time 12 min. This was followed by the dilution of all the tubes to 1/200 in water and the reading of the fluorescence (370/480 nm) with a gain of 2 on the Perkin Elmer LS3B fluorimeter.
The results obtained are given in FIG. 25, with which is the mean calibration curve illustrating the variation of the fluorescence intensity as a function of the enzyme concentration (μg/ml). This calibration curve was determined by linear regression. The mean standard deviation is 153±7.36 for the gradient and -3.10±1.16 for the intercept.
The quantification limit, calculated by the ratio […], is 0.02 μg/ml.
The repeatability, evaluated by the variation coefficient, is 17% at 0.05 μg/ml, 8% at 0.25 μg/ml and 4% at 1 μg/ml.

Data set [7] has as its system Leucine aminopeptidase. The experiment in a line: Enzymatic hydrolysis of substrate by leucine aminopeptidase, Michaelis kinetics. It counts as biochemical. On the procedure: As a result of the possible presence in the substrate Leu ATC (compound 13) of a trace of ATC, i.e. 7-amino-4-(2',5',8'-trioxanonyl)-coumarin, which is the hydrolysis product, use was made of a kinetic method for determining the enzymatic activity of leucine aminopeptidase, i.e. the signal is constituted by the fluorescence intensity difference at 2 minutes and 12 minutes. In this way it is possible to eliminate the interference of the ATC present prior to hydrolysis.
The initial speed of the reaction was studied for a concentration of the substrate constituted by compound 13 (Leu-ATC) between 2×10^-5 mole/l and […] using the following reagents:
Crystalline Leu-ATC hydrochloride of example 13: aqueous solutions 4×10^-5 to 4×10^-3 mole/l,
Leucine aminopeptidase (Sigma, ref N5006): aqueous solution at 7.53 μg/ml in 0.2M Tris buffer, pH7.8,
Tris buffer: solution A: 0.2M Tris, i.e. 24.23 g/l, solution B: 0.1M HCl.
This buffer is prepared by mixing 25 ml of solution A and 33.7 ml of solution B and by topping up to 100 ml with water. The pH must be 7.8.
1.17N perchloric acid solution (1/10 dilution of the pure acid).
For this determination, preparation firstly takes place in tubes of the following range of substrate concentrations (compound 13, Leu-ATC): 0-2-4-10-20-50-100-200×10^-5 M (final concentration).
To each tube is added a concentration of 1.51 μg/ml of Leucine aminopeptidase, everything being dissolved in the Tris buffer at pH 7.8, preheated to 37° C., whilst the tubes are in a water bath thermostatically controlled to 37° C. After 2 min, 250 μl are removed from each tube and poured into tubes containing 250 μl of perchloric solution and 750 μl of water. The same operation is repeated after 6 min. All the tubes are diluted to 1/1000. The intensity of the fluorescence IF is measured at 370/480 nm. The difference of the intensities at 6 and 2 min: […] constitutes the signal.
The corresponding ATC concentration is calculated relative to a calibration range between 10^-9 and 10^-8 M. The results are given in the following table 2:
The speed constant kcat is calculated by the ratio Vm/Ez, in which Vm is the maximum speed in μmole/s/mg/Ez and Ez is the enzyme quantity in 1 mg, expressed in μmole. The molar mass of Leucine aminopeptidase is 300000.
This curve has a hyperbolic behaviour characteristic of a Michaelis kinetics. The experimental points were adjusted to the corresponding equation by non-linear regression (Graphpad software) and made it possible to determine the affinity constant Km, the maximum speed Vm and the speed constant kcat (ratio of the maximum speed to the enzyme concentration).

The nature of data set [8]: Excitation and emission spectra of ATC derivatives (Table 4). It counts as physicochemical. The note with it: 10^-7 M; Z-Arg-ATC in 50 mM Tris pH 8, 10 mM CaCl2. As to the method:
The excitation and emission spectra of ATC and Z-Arg-ATC were plotted on the basis of 10^-7 M solutions in the 50 mM Tris buffer at pH 8 containing 10 mM of CaCl2. The maxima obtained are indicated in table 4 with the corresponding maxima of Leu-ATC.

Substrate in data set [9]: COCCOCCOCc1cc(=O)oc2cc(NC(=O)[C@H](CCCNC(=N)N)NC(=O)OCc3ccccc3)ccc12
Nature of the data set: Hydrolysis of substrate by trypsin, Michaelis kinetics. It counts as biochemical, pig. Conditions: other: Tris buffer pH 8.0 + CaCl2 10 mM, ambient temperature. As to the method:
Crystalline Z-Arg-ATC hydrochloride (Seratec): 10^-3 M solution in Tris buffer, pH 8.0+CACl2, 10 mM.
Pig pancreas trypsin (SIGMA T0134): 10^-3 M solution in Tris buffer, pH 8.0+CACl2, 10 mM.
Tris buffer: solution A: 0.2M Tris, i.e. 24.23 g/l+CaCl2, 40 mM, i.e. 5.88 g/l; solution B: 0.1M HCl.
This buffer is prepared by mixing 250 ml of solution A with 268 ml of solution B and by topping up to 1 liter with water.
Acetate buffer: solution A: 0.02M acetic acid; solution B: 0.02M sodium acetate.
This buffer is prepared by mixing volume by volume solutions A and B to obtain a buffer at pH 4.75.
Aqueous 1.17N perchloric acid solution (1/10 dilution of pure acid).
The following substrate concentration range was prepared in tubes: 0-0.2-0.5-1-2-5-10×10^-4 M (final concentration).
To each tube was added a concentration of 6.67 μg/ml of trypsin, everything being dissolved in the Tris buffer pH 8.0+CaCl2, 10 mM and at ambient temperature. The enzyme is added at time 0. After 2 minutes, 250 μl are removed from each tube and poured into tubes containing 250 μl of 1.17N perchloric acid and 500 μl of water. The tubes are centrifuged and then the solution is diluted to 1/250 in the acetate buffer. The same operation is repeated at 17 min. The fluorescence intensity is measured at 380/490nm. The difference of the intensities at 17 and 2 min constitutes the signal.
The corresponding ATC concentration is calculated compared with a calibration range from 5×10^-9 to 2×10^-7 M.
This was followed by the determination of Km, Vm, kcat and the ratio kcat/Km. The results obtained are given in table 6, which also gives for comparison purposes the values obtained with Z-L-Arg-AMC and Bz DL Arg-AMC and Bz -L-Arg-AMC.

Setting [10] is: fluorescence intensity vs enzyme concentration (μg/ml), linear regression.
Setting [11] is: Tris buffer pH 7.8, 37° C., no organic solvent.
Where [12] appears, read: words, vs Leu AMC and Leu-βnaphthylamide.

Regarding `Cc1cc(=O)oc2cc(NC(=O)[C@@H](N)CC(C)C)ccc12` [Leu AMC], the detection limit in data set [1] was 0.03 µg/mL. In data set [2], the Km is 160 µM and the Vm is on record as 4.0 μmole/mg Ez/min. In addition, in data set [3] (10^-7 M in Tris buffer, pH 7.8), the “Maximum excitation wavelength, substrate” value is listed as 327 nm and the “Maximum fluorescence wavelength, substrate” value is 390 nm.

With `COCCOCCOCc1cc(=O)oc2cc(N)ccc12` [Compound 4, 7-amino-4-(2',5',8'-trioxanonyl)coumarin], in [3] (10^-7 M in Tris buffer, pH 7.8), the “Maximum excitation wavelength, hydrolysis product” value is listed as 350 nm and the “Maximum fluorescence wavelength, hydrolysis product” value turned out to be 465 nm. Besides, the solubility in data set [4] was 400 µg/mL and 1330 µM. Moreover, the “ratio of the fluorescence intensities of the hydrolysis product and the substrate” value in data set [5] was “approximately 400”.

In the case of `Nc1ccc2c(CS(=O)(=O)O)cc(=O)oc2c1` [AMCS, 7-amino-4-coumarinyl-methane sulphonic acid, reference compound], the “ratio of the fluorescence intensities of the hydrolysis product and the substrate” value in data set [5] is about 250.

For `COCCOCCOCc1cc(=O)oc2cc(NC(=O)[C@@H](N)CC(C)C)ccc12` [Compound 13, L-leucine-4-(2',5',8'-trioxanonyl)-7-coumarinylamide hydrochloride], the “repeatability (variation coefficient)” value in [6] (at 0.05 μg/ml enzyme) amounted to 17%; in [6] (at 0.25 μg/ml enzyme), 8%; in data set [6] (at 1 μg/ml enzyme), 4%. Moreover, the “gradient of calibration curve” value in data set [6] (setting [10]) was 153±7.36. The “intercept of calibration curve” value in [6] (setting [10]) is on record as -3.10±1.16. For the same molecule, the quantification limit in data set [6] (leucine aminopeptidase, ratio 3 b/a, substrate 1 mM, 12 min) is 0.02 µg/mL. For the same molecule, in data set [3] (10^-7 M in Tris buffer, pH 7.8), the “Maximum excitation wavelength, substrate” value is 330 nm. The “Maximum fluorescence wavelength, substrate” value in data set [3] (10^-7 M in Tris buffer, pH 7.8) is listed as 405 nm. Moreover, the “Stokes displacement compared with AMC and AMCS derivatives” value in data set [3] (words) is “greater”. Further, the “ATC concentration in hydrolysis solution” value in data set [7] (Leu-ATC 2×10^-5 M) is 1.7 µM/min; in data set [7] (Leu-ATC 4×10^-5 M), 3.6 µM/min; in [7] (Leu-ATC 10×10^-5 M) it was 6.6 µM/min; in data set [7] (Leu-ATC 20×10^-5 M), 12.0 µM/min; in data set [7] (Leu-ATC 50×10^-5 M), 14.1 µM/min; in data set [7] (Leu-ATC 100×10^-5 M), 14.7 µM/min. Further, the “ATC concentration in hydrolysis solution” value in [7] (Leu-ATC 200×10^-5 M) came out at 15.0 µM/min. Moreover, the “ATC concentration in working solution” value in [7] (Leu-ATC 2×10^-5 M) worked out at 1.38 nM; in [7] (Leu-ATC 4×10^-5 M), 2.88 nM; in [7] (Leu-ATC 10×10^-5 M) it was 5.25 nM; in data set [7] (Leu-ATC 20×10^-5 M), 9.63 nM; in data set [7] (Leu-ATC 50×10^-5 M), 11.25 nM; in data set [7] (Leu-ATC 100×10^-5 M), 11.75 nM. Further, in [7] (Leu-ATC 200×10^-5 M), the “ATC concentration in working solution” value is 12.0 nM. The “IF(6)-IF(2)” value in data set [7] (Leu-ATC 2×10^-5 M) was 5.5; in data set [7] (Leu-ATC 4×10^-5 M), 11.5; in [7] (Leu-ATC 10×10^-5 M), 21; in data set [7] (Leu-ATC 20×10^-5 M), 38.5; in data set [7] (Leu-ATC 50×10^-5 M), 45; in [7] (Leu-ATC 100×10^-5 M) it was 47. Moreover, in data set [7] (Leu-ATC 200×10^-5 M), the “IF(6)-IF(2)” value came to 48. Besides, in data set [7] (setting [11]), the Km amounted to 110 µM. The same molecule came in with a Vm in [7] (setting [11]) of 10.3 μmole/mg Ez/min. The kcat in [7] (ratio Vm/Ez, pH 7.8, 37° C.) is 51.5 s⁻¹. Moreover, the “affinity for Leucine aminopeptidase compared with the other substrates” value in data set [7] (setting [12]) is listed as “better than that of the two other substrates”. The “maximum speed compared with the other substrates” value in data set [7] (setting [12]) is “higher”. The “excitation maximum, substrate” value in data set [8] came out at 330 nm. Further, the “fluorescence maximum, substrate” value in data set [8] was found to be 405 nm.

B1: Pig pancreas trypsin (Sus scrofa) (protein)
chain: IVGGYTCAANSIPYQVSLNSGSHFCGGSLINSQWVVSAAHCYKSRIQVRLGEHNIDVLEGNEQFINAAKIITHPNFNGNTLDNDIMLIKLSSPATLNSRVATVSLPRSCAAAGTECLISGWGNTKSSGSSYPSLLQCLKAPVLSDSSCKSSYPGQITGNMICVGFLEGGKDSCQGDSGGPVVCNGQLQGIVSWGYGCAQKNKPGVYTKVCNYVNWIQQTIAAN
For the molecule B1, in data set [9], the Michaelis-Menten constant (Km) was determined as 195 µM, the Vmax was 3.16 µM/min and the kcat/Km was 975 M⁻¹ s⁻¹.
